Test results as given in patent US20250312499A1, “KISSPEPTIN RECEPTOR (KISS1R) TARGETED THERAPEUTICS AND USES THEREOF” (priority 2024, published 2025).
Square brackets hold non-standard residues; d marks the D form. Peptide text beside a SMILES is read from it. * marks the point of attachment. DOTA = O=C(O)CN1CCN(CC(=O)O)CCN(CC(=O)*)CCN(CC(=O)O)CC1; Gly(N-(3-F-4-Me-benzyl)) = Cc1ccc(CNCC(=O)*)cc1F; Butanoyl(4-(4-MePh)) = Cc1ccc(CCCC(=O)*)cc1; Api(1-amidino) = N=C(N)N1CCC(N)(C(=O)O)CC1; Api = NC1(C(=O)O)CCNCC1; Ahx = NCCCCCC(=O)O; azaGly = NNC(=O)O; βAla = NCCC(=O)O; Sar = CNCC(=O)O

Each molecule was assayed against human kisspeptin receptor (Homo sapiens (Human), UniProt Q969F8) (assay: Human KISS1R binding assay (membrane competition binding)). Conditions: 90 min at room temperature; competition with 0.2 nM [125I]-metastin (45-54); Flp-In T-Rex 293 kisspeptin membranes; metal complexes nonradioactive Ga, In, Lu; read-out: hKiSSR Binding Ki (90 min).
Chain of human kisspeptin receptor (Q969F8 whole entry): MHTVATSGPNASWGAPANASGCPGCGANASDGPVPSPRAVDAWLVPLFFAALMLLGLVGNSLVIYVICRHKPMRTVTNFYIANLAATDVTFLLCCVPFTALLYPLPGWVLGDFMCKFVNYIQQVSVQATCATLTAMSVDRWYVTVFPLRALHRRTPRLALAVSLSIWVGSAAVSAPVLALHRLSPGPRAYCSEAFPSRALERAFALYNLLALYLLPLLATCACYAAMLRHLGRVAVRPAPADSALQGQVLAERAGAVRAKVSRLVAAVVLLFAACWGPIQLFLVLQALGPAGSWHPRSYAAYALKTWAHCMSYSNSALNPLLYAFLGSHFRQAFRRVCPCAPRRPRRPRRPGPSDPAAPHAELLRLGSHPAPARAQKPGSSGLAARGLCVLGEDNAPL
Description: Crude membrane fractions are prepared from Flp-In T-Rex 293 (Thermo Fisher) cell line expressing the human kisspeptin receptor. The cells are grown to 85-100% confluence on standard tissue culture dishes in Dulbecco's Modified Eagles Medium (DMEM) (Corning) supplemented with 10% FBS (Gemini), 1% penicillin-streptomycin-glutamine (Gibco), 500 μg/mL hygromycin, and 15 μg/mL blastacidin. 48 hrs prior to preparing membranes 10 μg/ml of tetracycline is added to the culture media to induce receptor expression. To prepare membranes, cells are scraped and collected in 1× Dulbecco's phosphate buffered saline (Corning) and then pelleted at 1000 RPMs. The cell pellet is reconstituted in membrane preparation buffer (20 mM HEPES, 6 mM MgCl2 and 1 mM EGTA, protease inhibitor tablets (Pierce), pH 7.4) and placed in a cell disruption vessel (Parr Instrument company) at 1000 PSI for 30 min on ice. The pressurized contents are then released and spun down at 1000 RPMs and the supernatant is collected and further centrifuged at 15,000 RPMs to pellet the membranes. The membrane pellet is resuspended in membrane preparation buffer, snap frozen and stored at −80° C. for later use.
The human kisspeptin membrane binding assay utilizes the following components: radiolabel [^125I]-metastin (45-54) (human) (Perkinhmer), crude Flp-In T-Rex 293 kisspeptin membranes, and competing small molecule and peptide ligands. The assay is initiated by combining in assay buffer (50 mM TrisHCl, 5 mM MgCl2, 2 mM EGTA, 10 mM CaCl2, 0.1% BSA, pH 7.4) a dose response of competing ligand (final concentrations are typically 0-10,000 nM), 5-10 μg of Flp-In T-Rex 293 kisspeptin membranes, and 0.2 n M [^125I]-metastin (45-54) in a 96-well assay plate and allowed to incubate 90 minutes at room temperature. Assay contents are then filtered through unifilter CF/C: microplates (PerkinElmer) pre-soaked with 0.5% BSA and washed with 9×400 μL of cold wash buffer (10 mM HEPES, 500 mM NaCl, 0.1% Tween-20, pH7.4). Assay plates are read using a Microbeta^2 (PerkinElmer) and Ki values for compounds are determined using a GraphPad Prism 9.3 non-linear regression analysis.

Structure (SMILES) | Ki [nM]
Cc1ccc(CNCC(=O)N2CCC(NC(=O)[C@H](CC(C)C)NC(=O)NNC(=O)[C@H](Cc3ccccc3)NC(=O)[C@@H](NC(=O)[C@H](CC(N)=O)NC(=O)[C@@H](Cc3c[nH]c4ccccc34)NC(=O)[C@@H](Cc3ccc(O)cc3)NC(=O)CCCCCNC(=O)CN3CCN(CC(=O)O)CCN(CC(=O)O)CCN(CC(=O)O)CC3)[C@@H](C)O)(C(=O)N[C@@H](Cc3c[nH]c4ccccc34)C(N)=O)CC2)cc1F [Compound 1] ({DOTA-Ahx}-[dY][dW]NTF[azaGly]L[Api](Gly(N-(3-F-4-Me-benzyl)))W-NH2) | < 10
Cc1ccc(CNCC(=O)N2CCC(NC(=O)[C@H](CC(C)C)NC(=O)NNC(=O)[C@H](Cc3ccccc3)NC(=O)CCCCCNC(=O)CN3CCN(CC(=O)O)CCN(CC(=O)O)CCN(CC(=O)O)CC3)(C(=O)N[C@@H](Cc3c[nH]c4ccccc34)C(N)=O)CC2)cc1F [Compound 2] ({DOTA-Ahx}-F[azaGly]L[Api](Gly(N-(3-F-4-Me-benzyl)))W-NH2) | < 10
CC(C)C[C@H](NC(=O)CNC(=O)[C@H](Cc1ccccc1)NC(=O)CCCCCNC(=O)CN1CCN(CC(=O)O)CCN(CC(=O)O)CCN(CC(=O)O)CC1)C(=O)NC1(C(=O)N[C@@H](Cc2c[nH]c3ccccc23)C(N)=O)CCN(C(=N)N)CC1 [Compound 3] ({DOTA-Ahx}-FGL[Api(1-amidino)]W-NH2) | > 100
CC(C)C[C@H](NC(=O)NNC(=O)[C@H](Cc1ccccc1)NC(=O)CCCCCNC(=O)CN1CCN(CC(=O)O)CCN(CC(=O)O)CCN(CC(=O)O)CC1)C(=O)NC1(C(=O)N[C@@H](Cc2c[nH]c3ccccc23)C(N)=O)CCN(C(=N)N)CC1 [Compound 5] ({DOTA-Ahx}-F[azaGly]L[Api(1-amidino)]W-NH2) | 10 to 100
CC(C)C[C@H](NC(=O)NNC(=O)[C@H](Cc1ccccc1)NC(=O)[C@@H](NC(=O)[C@H](CC(N)=O)NC(=O)[C@@H](Cc1c[nH]c2ccccc12)NC(=O)[C@@H](Cc1ccc(O)cc1)NC(=O)CCCCCNC(=O)CN1CCN(CC(=O)O)CCN(CC(=O)O)CCN(CC(=O)O)CC1)[C@@H](C)O)C(=O)NC1(C(=O)N[C@@H](Cc2c[nH]c3ccccc23)C(N)=O)CCN(C(=N)N)CC1 [Compound 6] ({DOTA-Ahx}-[dY][dW]NTF[azaGly]L[Api(1-amidino)]W-NH2) | < 10
Cc1ccc(CCCC(=O)N2CCC(NC(=O)[C@H](CC(C)C)NC(=O)NNC(=O)[C@H](Cc3ccccc3)NC(=O)CCCCCNC(=O)CN3CCN(CC(=O)O)CCN(CC(=O)O)CCN(CC(=O)O)CC3)(C(=O)N[C@@H](Cc3c[nH]c4ccccc34)C(N)=O)CC2)cc1 [Compound 7] ({DOTA-Ahx}-F[azaGly]L[Api](Butanoyl(4-(4-MePh)))W-NH2) | 10 to 100
Cc1ccc(CNCC(=O)N2CCC(NC(=O)[C@H](CC(C)C)SCCNC(=O)[C@H](Cc3ccccc3)NC(=O)CCCCCNC(=O)CN3CCN(CC(=O)O)CCN(CC(=O)O)CCN(CC(=O)O)CC3)(C(=O)N[C@@H](Cc3c[nH]c4ccccc34)C(N)=O)CC2)cc1F [Compound 8] | < 10
Cc1ccc(CNCC(=O)N2CCC(NC(=O)[C@H](CC(C)C)n3cc([C@H](Cc4ccccc4)NC(=O)CCCCCNC(=O)CN4CCN(CC(=O)O)CCN(CC(=O)O)CCN(CC(=O)O)CC4)nn3)(C(=O)N[C@@H](Cc3c[nH]c4ccccc34)C(N)=O)CC2)cc1F [Compound 9] | < 10
Cc1ccc(CNCC(=O)N2CCC(NC(=O)[C@H](CC(C)C)NC(=O)CNC(=O)[C@H](Cc3ccccc3)NC(=O)CCCCCNC(=O)CN3CCN(CC(=O)O)CCN(CC(=O)O)CCN(CC(=O)O)CC3)(C(=O)N[C@@H](Cc3c[nH]c4ccccc34)C(N)=O)CC2)cc1F [Compound 10] ({DOTA-Ahx}-FGL[Api](Gly(N-(3-F-4-Me-benzyl)))W-NH2) | < 10
Cc1ccc(CNCC(=O)N2CCC(NC(=O)[C@H](CC(C)C)NC(=O)CNC(=O)[C@H](Cc3ccccc3)NC(=O)CCCCCNC(=O)CN3CCN(CC(=O)O)CCN(CC(=O)O)CCN(CC(=O)O)CC3)(C(=O)N[C@@H](Cc3ccc(O)cc3)C(N)=O)CC2)cc1F [Compound 11] ({DOTA-Ahx}-FGL[Api](Gly(N-(3-F-4-Me-benzyl)))Y-NH2) | < 10
Cc1ccc(CNCC(=O)N2CCC(NC(=O)[C@H](CC(C)C)NC(=O)CN(C)C(=O)[C@H](Cc3ccccc3)NC(=O)CCCCCNC(=O)CN3CCN(CC(=O)O)CCN(CC(=O)O)CCN(CC(=O)O)CC3)(C(=O)N[C@@H](Cc3c[nH]c4ccccc34)C(N)=O)CC2)cc1F [Compound 12] ({DOTA-Ahx}-F[Sar]L[Api](Gly(N-(3-F-4-Me-benzyl)))W-NH2) | 10 to 100

Further lines, results first:

Ki [nM] | Structure (SMILES)
10 to 100 | Cc1ccc(CNCC(=O)N2CCC(NC(=O)[C@H](CC(C)C)NC(=O)NNC(=O)[C@H](Cc3ccccc3)NC(=O)[C@@H](C)NC(=O)[C@@H](C)NC(=O)[C@@H](C)NC(=O)[C@@H](C)NC(=O)[C@@H](C)NC(=O)CCCCCNC(=O)CN3CCN(CC(=O)O)CCN(CC(=O)O)CCN(CC(=O)O)CC3)(C(=O)N[C@@H](Cc3c[nH]c4ccccc34)C(N)=O)CC2)cc1F [Compound 13] ({DOTA-Ahx}-[dA][dA][dA][dA][dA]F[azaGly]L[Api](Gly(N-(3-F-4-Me-benzyl)))W-NH2)
10 to 100 | Cc1ccc(CNCC(=O)N2CCC(NC(=O)[C@H](CC(C)C)NC(=O)NNC(=O)[C@H](Cc3ccccc3)NC(=O)[C@@H](CC(N)=O)NC(=O)[C@@H](CC(N)=O)NC(=O)[C@@H](CC(N)=O)NC(=O)[C@@H](CC(N)=O)NC(=O)[C@@H](CC(N)=O)NC(=O)CCNC(=O)CN3CCN(CC(=O)O)CCN(CC(=O)O)CCN(CC(=O)O)CC3)(C(=O)N[C@@H](Cc3c[nH]c4ccccc34)C(N)=O)CC2)cc1F [Compound 14] ({DOTA-βAla}-[dN][dN][dN][dN][dN]F[azaGly]L[Api](Gly(N-(3-F-4-Me-benzyl)))W-NH2)
> 100 | Cc1ccc(CNCC(=O)N2CCC(NC(=O)[C@H](CC(C)C)NC(=O)NNC(=O)[C@H](Cc3ccccc3)NC(=O)[C@@H](CC(N)=O)NC(=O)[C@@H](CCC(=O)O)NC(=O)[C@@H](CCC(=O)O)NC(=O)[C@@H](CC(N)=O)NC(=O)[C@@H](CC(N)=O)NC(=O)CCNC(=O)CN3CCN(CC(=O)O)CCN(CC(=O)O)CCN(CC(=O)O)CC3)(C(=O)N[C@@H](Cc3c[nH]c4ccccc34)C(N)=O)CC2)cc1F [Compound 15] ({DOTA-βAla}-[dN][dN][dE][dE][dN]F[azaGly]L[Api](Gly(N-(3-F-4-Me-benzyl)))W-NH2)
> 100 | Cc1ccc(CNCC(=O)N2CCC(NC(=O)[C@H](CC(C)C)NC(=O)NNC(=O)[C@H](Cc3ccccc3)NC(=O)[C@@H](CC(N)=O)NC(=O)[C@@H](CCC(=O)O)NC(=O)[C@@H](CCCCN)NC(=O)[C@@H](CC(N)=O)NC(=O)[C@@H](CC(N)=O)NC(=O)CCNC(=O)CN3CCN(CC(=O)O)CCN(CC(=O)O)CCN(CC(=O)O)CC3)(C(=O)N[C@@H](Cc3c[nH]c4ccccc34)C(N)=O)CC2)cc1F [Compound 16] ({DOTA-βAla}-[dN][dN][dK][dE][dN]F[azaGly]L[Api](Gly(N-(3-F-4-Me-benzyl)))W-NH2)
< 10 | Cc1ccc(CNCC(=O)N2CCC(NC(=O)[C@H](CC(C)C)NC(=O)NNC(=O)[C@H](Cc3ccccc3)NC(=O)CN(C)C(=O)CN(C)C(=O)CN3CCN(CC(=O)O)CCN(CC(=O)O)CCN(CC(=O)O)CC3)(C(=O)N[C@@H](Cc3c[nH]c4ccccc34)C(N)=O)CC2)cc1F [Compound 17] ({DOTA}-[Sar][Sar]F[azaGly]L[Api](Gly(N-(3-F-4-Me-benzyl)))W-NH2)
10 to 100 | Cc1ccc(CNCC(=O)N2CCC(NC(=O)[C@H](CC(C)C)NC(=O)NNC(=O)[C@H](Cc3ccccc3)NC(=O)[C@@H](CC(N)=O)NC(=O)[C@@H](CC(N)=O)NC(=O)CN3CCN(CC(=O)O)CCN(CC(=O)O)CCN(CC(=O)O)CC3)(C(=O)N[C@@H](Cc3c[nH]c4ccccc34)C(N)=O)CC2)cc1F [Compound 18] ({DOTA}-[dN][dN]F[azaGly]L[Api](Gly(N-(3-F-4-Me-benzyl)))W-NH2)
< 10 | Cc1ccc(CNCC(=O)N2CCC(NC(=O)[C@H](CC(C)C)NC(=O)NNC(=O)[C@H](Cc3ccccc3)NC(=O)[C@@H](NC(=O)[C@H](CC(N)=O)NC(=O)[C@@H]3CCCN3C(=O)[C@@H](Cc3ccc(O)cc3)NC(=O)CCCCCNC(=O)CN3CCN(CC(=O)O)CCN(CC(=O)O)CCN(CC(=O)O)CC3)[C@@H](C)O)(C(=O)N[C@@H](Cc3c[nH]c4ccccc34)C(N)=O)CC2)cc1F [Compound 20] ({DOTA-Ahx}-[dY]PNTF[azaGly]L[Api](Gly(N-(3-F-4-Me-benzyl)))W-NH2)
10 to 100 | Cc1ccc(CNCC(=O)N2CCC(NC(=O)[C@H](CC(C)C)NC(=O)NNC(=O)[C@H](Cc3ccccc3)NC(=O)[C@@H](CC(N)=O)NC(=O)CN3CCN(CC(=O)O)CCN(CC(=O)O)CCN(CC(=O)O)CC3)(C(=O)N[C@@H](Cc3c[nH]c4ccccc34)C(N)=O)CC2)cc1F [Compound 21] ({DOTA}-[dN]F[azaGly]L[Api](Gly(N-(3-F-4-Me-benzyl)))W-NH2)
